The source of these data is patent publication US5900250A, “Monoglyceride/lactate ester permeation enhancer for oxybutnin” (ALZA Corporation, priority 1998, dated 1999).

Data set [1] can be described thus: in vitro permeation of oxybutynin through human epidermis at 35° C., EVA 40 systems on horizontal permeation cells (Examples 4-5). Type of data set: in vitro ADME. The following applies: R- or S-oxybutynin versus racemate. The protocol:
Oxybutynin, glycerol monolaurate and lauryl lactate were then added.
When EVA 40 was used the mixture was blended, cooled and calendered to a 5 mil thick film. This film was then laminated to an acrylic contact adhesive (MSP041991P, 3M) on one side and Medpar® backing (3M) on the opposite side. The laminate was then cut into 2.54 cm^2 circles using a stainless steel punch. Circular pieces of human-epidermis were mounted on horizontal permeation cells with the stratum corneum facing the donor compartment of the cell. The release liner of the system was then removed and the system was centered over the stratum corneum side of the epidermis.

A short description of data set [2]: solubility of glycerol monolaurate in lauryl lactate / EVA 40. The class given is physicochemical. Particulars: for Wt % GML in solution: based on GML solubility of 350 mg/g. From the text:
The unexpected effects of the specific weight percentages of the components of the permeation enhancer mixture are believed to be due, in part, to the solubility of the monoglyceride in the lactic acid ester. It is known that monoglycerides by themselves are effective permeation enhancers. The enhancement occurs by the solubilization of the monoglyceride in the lipid layer of the skin. The solubilization of the monoglyceride in the lipid layer increases as a function of lactic acid ester concentration. […] Thus, the amount of GML dissolved, ie, free GML, is dictated by and proportional to the lauryl lactate loading in the polymer.

The format of data set [3] is in vivo, human. Particulars: after the initial application; transdermal with permeation enhancing mixture. On the procedure: Therapeutic blood levels can be achieved within approximately 6-10 hours after the initial application, and blood concentrations are maintained with subsequent system applications. The range of desired and achievable system permeation rates of oxybutynin, arriving through the skin from a limited area, is 1-20 mg over a period of 24 hours. The system application is easily adapted for shorter or longer duration treatments, but generally 72 hours is the duration for a single application.

For data set [4] the following is noted: aqueous solution 25 mg/mL, 0.05 M isotonic phosphate buffer, 20 μm polybutadiene film, cited from earlier work.

For `CCN(CC)CC#CCOC(=O)[C@@](O)(c1ccccc1)C1CCCCC1` [S-oxybutynin], the “flux of enantiomer relative to racemate, in words” value in data set [1] is “approximately equivalent to that of the racemate”.
Regarding `CCCCCCCCCCCC(=O)OCC(O)CO` (centres unmarked) [GML, glycerol monolaurate], the “Wt % GML in solution” value in data set [2] (12% lauryl lactate in EVA 40) turned out to be 4.2%; in data set [2] (20% lauryl lactate in EVA 40), 7.0%; in data set [2] (27% lauryl lactate in EVA 40) it was 9.5%; in data set [2] (30% lauryl lactate in EVA 40), 10.5%. Also, the “solubility in EVA 40 matrix” value in data set [2] (EVA 40 matrix) is on record as “practically insoluble”. Moreover, in data set [2] (solution stirred), the “solubility of glycerol monolaurate in lauryl lactate” value is recorded as 350 mg/g of solution.
For `CCN(CC)CC#CCOC(=O)[C@](O)(c1ccccc1)C1CCCCC1` [R-oxybutynin], the “flux of enantiomer relative to racemate, in words” value in data set [1] was “approximately equivalent to that of the racemate”.
On to `CCN(CC)CC#CCOC(=O)C(O)(c1ccccc1)C1CCCCC1` (centres unmarked) [Oxybutynin], for which the “time to therapeutic blood levels” value in data set [3] is 6 to 10 h. Also, the “in vitro release rate (per area)” value in data set [4] is recorded as ~10 μg/cm^2.hr. In addition, the “in vitro release rate (amount over 24 hours)” value in data set [4] (through a 49 cm^2 area) is listed as “approximately 12 mg over 24 hours”.
